Test systems include T47D; Hs-578T; UACC-62; UACC-257; M19-MEL; KM12; PC-3; XF498; K562; 786-0; SF-539; SNB-78; U-251; DU-145; NCI/ADR-RES; SK-OV-3; SNB-75; DLD-1; HOP-18; DMS-273.
What all share (assay): NCI-60 cell line screen, 48 h

14 compounds from ChEMBL document CHEMBL1201862, “PubChem BioAssay data set” (2004) can be followed below.

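Compound exposure: 48 hours, 5 concentrations, 96-well plates. GI50 is the concentration that inhibits growth by half.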 Active and inactive are the calls of the source. Rule as the data show it: active = GI50 up to about 1.1 µM and inactive = higher.

In the case of `CC1=NN(C(=O)c2ccccc2O)C(=O)/C1=C/c1c(O)ccc2ccccc12`, the GI50 with T47D was 41.1 µM (inactive); with Hs-578T it was 21.4 µM (inactive); in the test on UACC-62, 0.287 µM (active); with UACC-257, 2.47 µM (inactive); in the test with M19-MEL, 0.46 µM (active); with KM12 it was 2.78 µM (inactive). Moreover, the GI50 is 2.03 µM (inactive) with PC-3; 4.86 µM (inactive) with XF498; 1.73 µM (inactive) in the test on K562; 0.316 µM (active) in the test on 786-0; 0.804 µM (active) in the test with SF-539; 26.6 µM (inactive) in the test on SNB-78. The GI50 in the test with U-251 is 0.982 µM (active); with DU-145, 0.607 µM (active); in the test on NCI/ADR-RES it was 1.34 µM (inactive); in the test on SK-OV-3, 0.741 µM (active); in the test on SNB-75, 2.42 µM (inactive).

For `CSc1nc(NC2OC(COC(C)=O)C(OC(C)=O)C(OC(C)=O)C2OC(C)=O)c2c(OC(C)=O)c(C)c(=O)oc2n1` (centres undefined), the GI50 in the test with UACC-62, with UACC-257, in the test with M19-MEL, with KM12, with XF498 and in the test with K562 was > 100 µM (inactive) in each case. The GI50 in the test on 786-0, in the test on SF-539, with DLD-1, with SNB-78, in the test with U-251 and in the test on SK-OV-3 was > 100 µM (inactive) throughout. Besides, the GI50 in the test with SNB-75 and with HOP-18 was > 100 µM (inactive) in each case.

As to `COc1ccc2[nH]c3c(C)c4ccncc4c(C)c3c2c1`, the GI50 with UACC-62 is 0.731 µM (active); with UACC-257 it was 1.85 µM (inactive); in the test on KM12, 0.152 µM (active); in the test with XF498, 2.7 µM (inactive); in the test on K562 it was 0.196 µM (active); in the test with SF-539, 0.409 µM (active). Further, the GI50 in the test on DLD-1 was 0.123 µM (active); in the test with SNB-78, 2.69 µM (inactive); in the test on U-251, 0.513 µM (active); with DMS-273 it was 0.218 µM (active); with NCI/ADR-RES it was 0.139 µM (active); in the test on SK-OV-3 it was 0.75 µM (active). In addition, the GI50 with SNB-75 is 1.17 µM (inactive); with HOP-18 it was 1.29 µM (inactive).

With `CN(C)CCCNC(=O)N/N=C/c1ccccc1`, the GI50 with UACC-62, in the test on UACC-257, in the test on M19-MEL, in the test with KM12, with XF498 and in the test with K562 was > 100 µM (inactive) each time. Moreover, the GI50 in the test on SF-539, with DLD-1, in the test with SNB-78, in the test on U-251, in the test on DMS-273 and with SK-OV-3 was > 100 µM (inactive) throughout. The GI50 with SNB-75 and in the test with HOP-18 was > 100 µM (inactive) throughout.

`c1ccc2c(c1)NCc1cc3ccccc3nc1O2`: the GI50 with UACC-62, with UACC-257, in the test on M19-MEL, with KM12, with XF498 and in the test on K562 was > 100 µM (inactive) throughout. Further, the GI50 was > 100 µM (inactive) with SF-539; > 100 µM (inactive) in the test with DLD-1; > 100 µM (inactive) in the test on SNB-78; > 100 µM (inactive) in the test with DMS-273; > 77.8 µM (inactive) in the test with NCI/ADR-RES; > 100 µM (inactive) in the test on SK-OV-3. Besides, the values for the GI50 with SNB-75 and in the test on HOP-18 were > 84.5 µM (inactive) and > 100 µM (inactive), respectively.

`Cc1ccc(S(=O)(=O)N(C=O)N=C2CCN(Cc3ccccc3)CC2)cc1`: the GI50 with UACC-62, in the test with UACC-257, with M19-MEL, in the test with KM12, in the test with XF498 and in the test on K562 was > 100 µM (inactive) each time. Moreover, the GI50 in the test with 786-0, in the test on SF-539, in the test on DLD-1, in the test on SNB-78, in the test with U-251 and in the test on DMS-273 was > 100 µM (inactive) each time. Further, the GI50 with SK-OV-3, in the test with SNB-75 and in the test with HOP-18 was > 100 µM (inactive) each time.

For `N#CCCC(CCC#N)(CCC#N)NO`, the GI50 with T47D, in the test with Hs-578T, with UACC-62, with UACC-257, with KM12 and with PC-3 was > 100 µM (inactive) each time. For the same compound, the GI50 in the test on K562, with 786-0, with SF-539, in the test on U-251, in the test with DU-145 and in the test on NCI/ADR-RES was > 100 µM (inactive) throughout. Moreover, the GI50 in the test with SK-OV-3 was > 100 µM (inactive); with SNB-75, 73.8 µM (inactive).

`COc1ccc(/C=C2\C(=O)N(C(=O)c3ccc(NC(C)=O)cc3)N=C2C)cc1`: the GI50 in the test on UACC-257, in the test on M19-MEL, in the test with KM12, in the test on XF498, with K562 and with 786-0 was > 100 µM (inactive) throughout. Besides, the GI50 is > 100 µM (inactive) in the test on SF-539; > 10 µM (inactive) with DLD-1; > 100 µM (inactive) in the test on SNB-78; > 100 µM (inactive) in the test on DMS-273; > 100 µM (inactive) with SNB-75; > 100 µM (inactive) with HOP-18.

Take `C=CCOCCC(CC=C)C(=O)CC(=O)OC` (centres undefined): the GI50 with UACC-62 was 52.8 µM (inactive); in the test on UACC-257, > 100 µM (inactive); in the test with KM12, > 100 µM (inactive); in the test on XF498, > 100 µM (inactive); in the test with K562 it was 19.3 µM (inactive); in the test with SF-539, > 100 µM (inactive). Further, the GI50 in the test on DLD-1 is > 100 µM (inactive); with U-251, > 100 µM (inactive); with DMS-273 it was 45.3 µM (inactive); in the test with SK-OV-3, > 100 µM (inactive); in the test with SNB-75, 25.9 µM (inactive); in the test on HOP-18, > 100 µM (inactive).

Take `Nc1ccccc1S(=O)(=O)c1ccccc1`: the GI50 in the test with UACC-62, in the test with UACC-257, with M19-MEL, in the test on KM12, with K562 and in the test with SF-539 was > 100 µM (inactive) in each case. Moreover, the GI50 with DLD-1 was > 100 µM (inactive); in the test on U-251, > 100 µM (inactive); with DMS-273, > 100 µM (inactive); with SK-OV-3, > 100 µM (inactive); in the test on SNB-75, 41.1 µM (inactive); with HOP-18 it was > 100 µM (inactive).

As for `CN(C)C(C1=C(O)C(c2ccccc2)N(c2ccccc2)C1=O)N1CCOCC1` (centres undefined), the GI50 in the test with T47D, in the test on Hs-578T, in the test with UACC-62, in the test with UACC-257, with KM12 and in the test with PC-3 was > 10 µM (inactive) in each case. Moreover, the GI50 in the test with K562, with 786-0, in the test on SF-539, in the test on U-251, with DU-145 and in the test on NCI/ADR-RES was > 10 µM (inactive) throughout. For the same compound, the GI50 in the test with SK-OV-3 and with SNB-75 was > 10 µM (inactive) throughout.

On to `O=c1c(-c2ccccc2)c2oc(c1-c1ccccc1)CS(=O)(=O)CCC2`, for which the GI50 was 21.5 µM (inactive) with UACC-62; 28.8 µM (inactive) in the test on UACC-257; 17 µM (inactive) in the test on M19-MEL; 32.2 µM (inactive) in the test on KM12; 5.97 µM (inactive) in the test with XF498; 31.1 µM (inactive) in the test on K562. For the same compound, the GI50 in the test with 786-0 was 19.8 µM (inactive); with SF-539 it was 18.2 µM (inactive); in the test with DLD-1, 21.6 µM (inactive); in the test on DMS-273, 22.5 µM (inactive); in the test with SK-OV-3, > 100 µM (inactive); with HOP-18, < 0.01 µM (active).

As to `N#CC1=C(O)NC(O)=C(C#N)C1c1c(Cl)cccc1Cl`, the GI50 in the test on UACC-62 is 23.5 µM (inactive); in the test with UACC-257, 35.2 µM (inactive); in the test on M19-MEL, 21.4 µM (inactive); in the test with KM12, 22.1 µM (inactive); in the test on XF498, 61.4 µM (inactive); in the test on K562, > 100 µM (inactive). In addition, the GI50 in the test on SF-539 was 20 µM (inactive); in the test with DLD-1, 16.7 µM (inactive); with SNB-78, 26.2 µM (inactive); in the test on U-251, 32.7 µM (inactive); in the test with DMS-273, 26.2 µM (inactive); in the test with SK-OV-3 it was 23.6 µM (inactive). Besides, the GI50 is 11.7 µM (inactive) in the test on SNB-75 and > 100 µM (inactive) in the test with HOP-18.

On to `O=C1CCCCC2N(C(c3ccccc3)c3ccccc3)CC[C@@]12c1ccccc1.O=C1CCCC[C@H]2N(C(c3ccccc3)c3ccccc3)CC[C@@]12c1ccccc1` (some centres undefined), for which the GI50 in the test with UACC-62 is > 10 µM (inactive); in the test with UACC-257 it was 6.14 µM (inactive); in the test with M19-MEL, > 10 µM (inactive); in the test on KM12, > 10 µM (inactive); in the test with K562 it was 4.27 µM (inactive); in the test on SF-539 it was > 10 µM (inactive). Further, the GI50 in the test on SNB-78, with U-251, with DMS-273, with SK-OV-3 and in the test on SNB-75 was > 10 µM (inactive) in each case.
